Test results: publication PMC3292407 (The Journal of Neuroscience, 2012)
Values joined by “and” are separate entries in the source; they are usually repeats but may differ in a detail not shown here. Equal entries are not always repeated. Where two headings read alike, the source gives them in different places.

What was measured:
rats [1] = assay: Pentylenetetrazol; assay type: in vivo, rat; settings: PTZ 42 mg/kg
GABAARs [2] = assay type: cell-based, rat
GABAAR α4 subunit [3] = assay: Western blot of total GABAAR α4 subunit in hippocampus 48 hr after withdrawal; assay type: in vivo, rat
GABAARs [4] = assay type: cell-based, rat; settings: for Itonic (pA) / mIPSC amplitude (pA) / mIPSC area (fC) / Decay time / Frequency (HZ) / Rise time: DGCs of naive rats; for Decay time / Frequency (HZ) / Rise time: mIPSCs
rats [5] = assay type: in vivo, rat; settings: for EtOH consumption: 20% EtOH/water (E/water-group)
[6] = Plasma EtOH concentrations; assay type: in vivo, rat
rats [7] = assay: Elevated-plus maze; assay type: in vivo, rat
GABAAR α4 subunit [8] = assay type: cell-based, rat
[9] = Plasma [EtOH] assay of two-bottle choice; assay type: in vivo, rat; settings: E+D/water-group vs E/water-group, end of the 6th week
rats [10] = assay: Loss of Righting Reflex
GABAARs [11] = assay type: in vivo, rat; settings: for Decay time / Frequency (HZ) / Rise time: baseline mIPSCs; for Itonic (pA) / mIPSC amplitude (pA) / mIPSC area (fC): baseline
[12] = 48 hr after DHM 1 mg/kg i.p. alone (D/W)
[13] = 48 hr withdrawal after EtOH 3 g/kg + DHM 1 mg/kg i.p. (E+D/W)
[14] = DHM 1 μM, cultured hippocampal neurons DIV13-14
[15] = DHM 3 μM in presence of EtOH 60 mM
[16] = DHM 0.3, 0.5, 1, 10 mg/kg co-injected i.p. with EtOH 3 g/kg
[17] = D/W: 48 hr after DHM 1 mg/kg gavage
[18] = E+D/W: 48 hr after EtOH 5 g/kg + DHM 1 mg/kg gavage
[19] = bath EtOH 60 mM, DGCs, naive rats
[20] = E/W: 48 hr after EtOH 5 g/kg gavage
[21] = bath EtOH 60 mM, DGCs of V/W-group rats

SMILES: O=C1c2c(O)cc(O)cc2O[C@H](c2cc(O)c(O)c(O)c2)[C@H]1O [DHM, (2R,3R)-3,5,7-trihydroxy-2-(3,4,5-trihydroxyphenyl)-2,3-dihydrochromen-4-one]
- PTZ-induced seizure duration (rats [1]; [12]): 0.6 ± 0.4 min
- PTZ-induced seizure duration (rats [1]; [13]): 1.7 ± 0.8 min
- Itonic potentiation (GABAARs [2]; [14]): 194.9 ± 13.6 % of baseline
- mIPSC area potentiation (GABAARs [2]; [14]): 181.8 ± 9.2 % of baseline
- Effect on GABA concentration-response curve of GABAAR-currents (GABAARs [2]; DHM 0.3 and 1 μM co-applied with GABA, TTX present, DIV14): produced a left shift of the GABA concentration-response curve
- Effect on total α4 subunit level (GABAAR α4 subunit [3]; hippocampus 48 hr after DHM 1 mg/kg i.p. alone (D/W)): had no effect on α4 subunit level
- Total α4 protein level (GABAAR α4 subunit [3]; hippocampus 48 hr after EtOH 3 g/kg + DHM 1 mg/kg i.p. (E+D/W)): 93.0 ± 21.0 % of control
- Itonic (pA) (GABAARs [4]; DHM 0.1 μM): 27.6 ± 1.4 pA
- mIPSC amplitude (pA) (GABAARs [4]; DHM 0.1 μM): 30.9 ± 2.9 pA
- mIPSC area (fC) (GABAARs [4]; DHM 0.1 μM): 637.1 ± 19.8 fC
- Decay time (GABAARs [4]; DHM 0.1 μM): 7.5 ± 0.5 ms
- Frequency (HZ) (GABAARs [4]; DHM 0.1 μM): 14.0 ± 0.6 HZ
- Rise time (GABAARs [4]; DHM 0.1 μM): 2.0 ± 0.2 ms
- Itonic (pA) (GABAARs [4]; DHM 1 μM): 44.0 ± 4.1 pA
- mIPSC amplitude (pA) (GABAARs [4]; DHM 1 μM): 32.7 ± 2.6 pA
- mIPSC area (fC) (GABAARs [4]; DHM 1 μM): 715.7 ± 26.2 fC
- Decay time (GABAARs [4]; DHM 1 μM): 8.6 ± 0.5 ms
- Frequency (HZ) (GABAARs [4]; DHM 1 μM): 15.0 ± 0.6 HZ
- Rise time (GABAARs [4]; DHM 1 μM): 2.1 ± 0.2 ms
- EtOH-potentiated Itonic (GABAARs [4]; [15]): 21.0 ± 0.9 pA
- EtOH-potentiated mIPSCs (area) (GABAARs [4]; [15]): 0.70 ± 0.02 nC
- Itonic (pA) (GABAARs [4]; DHM 10 μM): 53.8 ± 2.9 pA
- mIPSC amplitude (pA) (GABAARs [4]; DHM 10 μM): 36.1 ± 2.4 pA
- mIPSC area (fC) (GABAARs [4]; DHM 10 μM): 965.7 ± 30.9 fC
- Decay time (GABAARs [4]; DHM 10 μM): 9.6 ± 0.8 ms
- Frequency (HZ) (GABAARs [4]; DHM 10 μM): 15.9 ± 1.0 HZ
- Rise time (GABAARs [4]; DHM 10 μM): 2.4 ± 0.3 ms
- Itonic (pA) (GABAARs [4]; DHM 30 μM): 54.0 ± 3.4 pA
- mIPSC amplitude (pA) (GABAARs [4]; DHM 30 μM): 35.8 ± 3.0 pA
- mIPSC area (fC) (GABAARs [4]; DHM 30 μM): 956.7 ± 22.6 fC
- Decay time (GABAARs [4]; DHM 30 μM): 10.1 ± 0.8 ms
- Frequency (HZ) (GABAARs [4]; DHM 30 μM): 16.1 ± 1.7 HZ
- Rise time (GABAARs [4]; DHM 30 μM): 2.4 ± 0.2 ms
- Effect on EtOH (60 mM) potentiation of Itonic and mIPSCs (GABAARs [4]; DHM 0.3 and 1.0 μM): concentration-dependently antagonized
- Preference to bottle containing E+D (rats [5]; E+D/water-group, 3rd vs 7th week): did not change this preference
- EtOH intake (rats [5]; EtOH+DHM 0.05 mg/ml/water (E+D/water-group), beginning of the 4th week): 2.6 ± 0.5 g/kg/day
- Total fluid consumption (rats [5]; between the 4 groups (E/water, E+D/water, D/water, water/water)): no significant differences in total fluid consumption
- Body weight (rats [5]; between the 4 groups at the end of the experiments): no significant difference in body weight
- Effect on plasma [EtOH] ([6]; DHM 10 mg/kg with EtOH 3 g/kg, significant at 30 min, not at 60 min): slightly decreased [EtOH]
- Rise time of plasma [EtOH] ([6]; DHM 1, 10 mg/kg with EtOH 3 g/kg): the rise time of plasma [EtOH] was slowed at early time
- Time in open and closed arms (EPM) (rats [7]; [12]): did not affect the time rats spent in either arm
- Time in open and closed arms (EPM) (rats [7]; 48 hr withdrawal after EtOH 3 g/kg + DHM 1 mg/kg i.p. (E+D/W), vs V/W-group): spent similar times
- Effect on EtOH-induced increase in surface GABAAR α4 (GABAAR α4 subunit [8]; cultured neurons 24 hrs after EtOH 60 mM + DHM 0.1 μM (E+D)): prevented this increase
- Plasma [EtOH] [9]: significantly lower
- Acute EtOH-induced LORR (tolerance) (rats [10]; 48 hr withdrawal after DHM 1 mg/kg i.p. alone (D/W)): 65.6 ± 8.4 min
- Acute EtOH-induced LORR (tolerance) (rats [10]; [13]): 61.0 ± 3.8 min
- LORR duration (rats [10]; DHM 1 mg/kg 30 min prior to EtOH injection (D1+E)): 8.2 ± 4.1 min
- LORR duration (rats [10]; DHM 1 mg/kg co-injected i.p. with EtOH 4 g/kg (E4+D1)): 28.2 ± 4.0 min
- LORR induction (rats [10]; DHM 1 mg/kg i.p. alone (D1)): did not induce LORR
- LORR duration (rats [10]; DHM 3 mg/kg co-injected with EtOH 3 g/kg (E3+D3)): 2.7 ± 1.7 min
- LORR duration (rats [10]; DHM 100 mg/kg i.p. alone (D100)): 2.9 ± 1.3 min
- Effect on duration of EtOH-induced LORR (rats [10]; [16]): dose-dependently reduced LORR
- Effect on onset of EtOH-induced LORR (rats [10]; [16]): dose-dependently increased LORR onset
- LORR duration (rats [10]; DHM 300 mg/kg i.p. alone (D300)): 9.8 ± 4.3 min
- Remaining LORR after the 30 min time point (rats [10]; DHM injected 30 min after EtOH): 19 ± 1.0 min
- Decay time (GABAARs [11]; [17]): 7.9 ± 1.2 ms
- Frequency (HZ) (GABAARs [11]; [17]): 13.2 ± 1.3 HZ
- Rise time (GABAARs [11]; [17]): 2.2 ± 0.3 ms
- Decay time (GABAARs [11]; [18]): 7.1 ± 0.6 ms
- Frequency (HZ) (GABAARs [11]; [18]): 12.4 ± 0.5 HZ
- Rise time (GABAARs [11]; [18]): 1.8 ± 0.3 ms
- Itonic (pA) (GABAARs [11]; [17]): 24.3 ± 2.9 pA
- mIPSC amplitude (pA) (GABAARs [11]; [17]): 28.5 ± 3.0 pA
- mIPSC area (fC) (GABAARs [11]; [17]): 621.5 ± 68.5 fC
- Itonic (pA) (GABAARs [11]; [18]): 30.0 ± 2.8 pA
- mIPSC amplitude (pA) (GABAARs [11]; [18]): 26.2 ± 2.1 pA
- mIPSC area (fC) (GABAARs [11]; [18]): 666.8 ± 34.1 fC
- mIPSC modulation by acute EtOH (GABAARs [11]; bath EtOH 60 mM, DGCs of E+D/W-group rats): mIPSC modulation was unchanged

SMILES: CCO [EtOH]
- PTZ-induced seizure duration (rats [1]; 48 hr withdrawal after EtOH 3 g/kg i.p. (E/W)): 6.5 ± 1.1 min
- Total α4 protein level (GABAAR α4 subunit [3]; hippocampus 48 hr after EtOH 3 g/kg i.p. (E/W), compared to V/W-group): 184.0 ± 26.0%
- Itonic (GABAARs [4]; [19]): 46.9 ± 1.4 pA and 44.8 ± 2.3 pA
- mIPSCs (area) (GABAARs [4]; [19]): 0.64 ± 0.02 nC and 0.78 ± 0.01 nC
- EtOH consumption (rats [5]; beginning of the 4th week): 7.4 ± 0.6 g/kg/day
- EtOH consumption (rats [5]; end of the 2nd week): 3.9 ± 1.4 g/kg/day
- Plasma [EtOH] ([6]; 30 min after EtOH 3 g/kg i.p. (E3)): 334.9 ± 37.8 mg/dL
- Plasma [EtOH] ([6]; 60 min after EtOH 3 g/kg i.p. (E3)): 353.7 ± 35.4 mg/dL
- Plasma [EtOH] at sampling time points (min) 5 ([6]; EtOH 4 g/kg i.p. (E4)): 365.5 ± 7.7
- Plasma [EtOH] at sampling time points (min) 30 ([6]; EtOH 4 g/kg i.p. (E4)): 379.5 ± 5.9
- Plasma [EtOH] at sampling time points (min) 60 ([6]; EtOH 4 g/kg i.p. (E4)): 372.8 ± 5.4
- Plasma [EtOH] at sampling time points (min) 90 ([6]; EtOH 4 g/kg i.p. (E4)): 361.6 ± 8.2
- Plasma [EtOH] at sampling time points (min) 180 ([6]; EtOH 4 g/kg i.p. (E4)): 324.6 ± 21.4
- Plasma [EtOH] at sampling time points (min) 0 ([6]; EtOH 4 g/kg i.p. (E4), 0 = 0 to 3 min): 143.3 ± 23.4
- Time in open and closed arms (EPM) (rats [7]; 48 hr withdrawal after EtOH 3 g/kg i.p. (E/W), vs V/W-group): significantly shorter time in open arms and longer time in closed arms
- Increase in surface expression of GABAAR α4 protein (GABAAR α4 subunit [8]; cultured neurons 24 hrs after EtOH 60 mM, 30 min): 1.5 fold
- Acute EtOH-induced LORR (tolerance) (rats [10]; 48 hr withdrawal after single EtOH 3 g/kg i.p. (E/W)): 10.8 ± 3.8 min
- LORR duration (rats [10]; EtOH 3 g/kg i.p. alone (E3)): 73.6 ± 8.0 min and 69.0 ± 11.3 min
- LORR onset (rats [10]; EtOH 3 g/kg i.p. alone (E3)): 1.8 ± 0.2 min
- LORR duration (rats [10]; EtOH 4 g/kg i.p. alone (E4)): 112.8 ± 8.0 min
- Additional LORR after the 30 min time point (rats [10]; EtOH, saline injected 30 min after EtOH): 42 ± 9.1 min
- mIPSC area before acute EtOH (GABAARs [11]; DGCs of E/W-group rats (EtOH 5 g/kg gavage, 48 hr withdrawal)): 0.70 ± 0.03 nC
- Decay time (GABAARs [11]; [20]): 4.0 ± 0.4 ms
- Frequency (HZ) (GABAARs [11]; [20]): 11.4 ± 0.8 HZ
- Rise time (GABAARs [11]; [20]): 0.8 ± 0.3 ms
- Itonic (pA) (GABAARs [11]; [20]): 13.0 ± 1.0 pA
- mIPSC amplitude (pA) (GABAARs [11]; [20]): 38.3 ± 3.3 pA
- mIPSC area (fC) (GABAARs [11]; [20]): 698.0 ± 33.7 fC
- mIPSC area with acute EtOH (GABAARs [11]; bath EtOH 60 mM, DGCs of E/W-group rats (EtOH 5 g/kg gavage, 48 hr withdrawal)): 1.4 ± 0.04 nC
- Itonic with acute EtOH (GABAARs [11]; [21]): 62.1 ± 3.3 pA
- mIPSC area with acute EtOH (GABAARs [11]; [21]): 0.78 ± 0.05 nC
